Experimental data taken from patent US20090048293A1 (priority 2005, published 2009).
Values joined by “and” are separate entries in the source; they are usually repeats but may differ in a detail not shown here. Equal entries are not always repeated. “Also recorded” adds a separate entry of the source. Where two headings read alike, the source gives them in different places. Where a SMILES comes first, the peptide text is derived from it. [ ]: non-standard residue; d: D form. The star is where a group is joined. Sta = CC(C)C[C@H](N)[C@@H](O)CC(=O)O; Isovaleryl = CC(C)CC(=O)*

Key:
[1] = tested on: Npr599; assay type: biochemical, Bacillus anthracis
[2] = tested on: InhA; assay type: biochemical, Bacillus anthracis
[3] = tested on: syndecan-1 ectodomain shedding from NMuMG cells; assay type: cell-based, murine
[4] = tested on: syndecan-1 shedding of NMuMG cells; assay type: cell-based, murine
[5] = tested on: TLR2; assay type: cell-based

c1cnc2c(c1)ccc1cccnc12 [1,10-phenanthroline, 1, 10-phenanthroline]
Effect on Npr599 caseinolytic activity (in words) [1]: rapidly inhibited | Effect on Npr599 caseinolytic activity (in words) ([1]; 1 mM): completely abolishes | Effect on InhA caseinolytic activity (in words) [2]: rapidly inhibited | Remaining protease activity (%) InhA [2]: 0% | Effect on InhA caseinolytic activity (in words) ([2]; 1 mM): completely abolishes | Effect on Npr599-activated syndecan-1 shedding (in words) [3]: abrogate | Effect on AnlO-induced syndecan-1 shedding (in words) [4]: reduce | Effect on LeTx-induced syndecan-1 shedding (in words) [4]: reduce | Effect on TLR2 signaling stimulated by B. anthracis culture supernatant (in words) [5]: abrogated

[Ca+2] [Ca2+]
Effect on Npr599 caseinolytic activity (in words) [1]: do not | Remaining activity (%) Npr599 [1]: 86 (1.5) % and 97 (1.4) % | Effect on InhA caseinolytic activity (in words) [2]: do not | Remaining activity (%) InhA [2]: 91 (5.2) % and 94 (3.5) %

[Cu+2] [Cu2+]
Effect on Npr599 caseinolytic activity (in words) [1]: inhibit | Remaining activity (%) Npr599 [1]: 1 (1.0) % and 0 (0.0) % | Effect on InhA caseinolytic activity (in words) [2]: inhibit | Remaining activity (%) InhA [2]: 0 (0.0) %

O[C@@H](CS)[C@@H](O)CS [DTT]
Effect on Npr599 caseinolytic activity (in words) [1]: inhibits | Effect on InhA caseinolytic activity (in words) [2]: inhibits

CC(C)C[C@H](NC(=O)[C@H]1O[C@@H]1C(=O)O)C(=O)NCCCCN=C(N)N [E-64]
Remaining protease activity (%) Npr599 [1]: 74.1% and 76.1% and 79.5% | Remaining protease activity (%) InhA [2]: 59.1% and 78.4% and 83.5%

O=C(O)CN(CCN(CC(=O)O)CC(=O)O)CC(=O)O [EDTA, ethylenediaminetetraacetic acid]
Effect on Npr599 caseinolytic activity (in words) [1]: rapidly inhibited | Remaining protease activity (%) Npr599 [1]: 6.5% and 9.5% and 10.5% | Effect on InhA caseinolytic activity (in words) [2]: rapidly inhibited | Remaining protease activity (%) InhA [2]: 28.2% and 28.7% and 33.1%

[Fe+2] [Fe2+]
Effect on Npr599 caseinolytic activity (in words) [1]: inhibit | Effect on InhA caseinolytic activity (in words) [2]: inhibit

CNC(=O)[C@H](Cc1c[nH]c2ccccc12)NC(=O)[C@@H](CC(=O)NO)CC(C)C [Galardin, Galardin (Ilomastat)]
Effect on Npr599 caseinolytic activity (in words) [1]: inhibits Npr599 activity strongly | Effect on InhA caseinolytic activity (in words) [2]: less sensitive; also recorded: not InhA activity significantly | Remaining protease activity (%) InhA [2]: 70.5% and 104% and 103.3% | Effect on Npr599-activated syndecan-1 shedding (in words) [3]: abrogate | Effect on AnlO-induced syndecan-1 shedding (in words) [4]: reduce

O=C1c2ccccc2-c2n[nH]c3cccc1c23 [JNK inhibitor, JNK inhibitor II]
Effect on protease-enhanced syndecan-1 release (in words) [3]: strongly inhibits | Effect on protease-enhanced syndecan-1 shedding (in words) [3]: some stimulatory effect

Cl.N[C@@H](CS)C(=O)O [L-Cysteine.HCl]
Effect on Npr599 caseinolytic activity (in words) ([1]; 1 mM): no substantial inhibiting activity | Effect on InhA caseinolytic activity (in words) ([2]; 1 mM): no substantial inhibiting activity

CC(=O)N[C@@H](CC(C)C)C(=O)N[C@@H](CC(C)C)C(=O)N[C@H](C=O)CCCNC(=N)N [Leupeptin, leupeptin]
Remaining protease activity (%) Npr599 [1]: 95.4% and 106.2% | Remaining protease activity (%) InhA [2]: 75.1% and 105.6% and 111.4%

[Mg+2] [Mg2+]
Effect on Npr599 caseinolytic activity (in words) [1]: do not | Remaining activity (%) Npr599 [1]: 83 (2.8) % and 97 (1.4) % | Effect on InhA caseinolytic activity (in words) [2]: do not | Remaining activity (%) InhA [2]: 76 (6.1) % and 97 (1.7) %

[Mn+2] [Mn2+]
Effect on Npr599 caseinolytic activity (in words) [1]: do not | Remaining activity (%) Npr599 [1]: 79 (0.2) % and 96 (4.3) % | Effect on InhA caseinolytic activity (in words) [2]: do not | Remaining activity (%) InhA [2]: 103 (2.5) % and 91 (5.1) %

[Ni+2] [Ni2+]
Remaining activity (%) Npr599 [1]: 46 (1.4) % and 77 (1.4) % | Remaining activity (%) InhA [2]: 45 (3.4) % and 69 (1.3) %

COc1cccc(-c2cc(=O)c3ccccc3o2)c1N [PD98059]
Effect on protease-enhanced syndecan-1 release (in words) [3]: strongly inhibits | Effect on protease-enhanced syndecan-1 shedding (in words) [3]: some stimulatory effect

O=S(=O)(F)Cc1ccccc1 [PMSF, phenylmethanesulfonyl fluoride]
Remaining protease activity (%) Npr599 [1]: 88.2% and 100.9% and 87.2% | Remaining protease activity (%) InhA [2]: 111.1% and 109.8% and 94.7%

CC(C)CC(=O)N[C@H](C(=O)N[C@H](C(=O)N[C@@H](CC(C)C)[C@@H](O)CC(=O)N[C@@H](C)C(=O)N[C@@H](CC(C)C)[C@@H](O)CC(=O)O)C(C)C)C(C)C [Pepstatin A, pepstatin A] (Isovaleryl-VV[Sta]A[Sta]-OH)
Remaining protease activity (%) Npr599 [1]: 67.6% and 75.3% and 77.9%

CC(C)C[C@H](NP(=O)(O)O[C@@H]1O[C@@H](C)[C@H](O)[C@@H](O)[C@H]1O)C(=O)N[C@@H](Cc1c[nH]c2ccccc12)C(=O)O [Phosphoramidon, phosphoramidon]
Effect on InhA caseinolytic activity (in words) [2]: less sensitive | Remaining protease activity (%) InhA [2]: 45.3% and 80.3% and 87.1% | Effect on Npr599-activated syndecan-1 shedding (in words) [3]: abrogate

CCCCCCCCCCCCOS(=O)(=O)[O-].[Na+] [SDS]
Activation of Npr599 ([1]; 3.5 μM): approximately 2.4 fold

[Zn+2] [Zn2+]
Effect on Npr599 caseinolytic activity (in words) [1]: inhibit | Effect on InhA caseinolytic activity (in words) [2]: inhibit

OCCS [b-mercaptoethanol, β-mercaptoethanol]
Remaining protease activity (%) Npr599 [1]: 85.4% and 133.4% and 120.7% | Effect on Npr599 caseinolytic activity (in words) ([1]; 1 mM): no substantial inhibiting activity | Remaining protease activity (%) InhA [2]: 85.8% and 105.8% and 113.4% | Effect on InhA caseinolytic activity (in words) ([2]; 1 mM): no substantial inhibiting activity

Cc1ccc(C(=O)Nc2ccc(S(=O)(=O)O)c3cc(S(=O)(=O)O)cc(S(=O)(=O)O)c23)cc1NC(=O)c1cccc(NC(=O)Nc2cccc(C(=O)Nc3cc(C(=O)Nc4ccc(S(=O)(=O)O)c5cc(S(=O)(=O)O)cc(S(=O)(=O)O)c45)ccc3C)c2)c1 [suramin]
Effect on syndecan-1 shedding induced by proteases (in words) [3]: effectively inhibits | Effect on syndecan shedding (in words) ([3]; 20 μM): stimulates | Effect on AnlO-induced syndecan-1 shedding (in words) [4]: reduce | Effect on LeTx-induced syndecan-1 shedding (in words) [4]: reduce
